SMILES strings stand for the structures.

By IC50 is commonly meant the concentration that inhibits the measured activity by half.

Common to all, as to type: biochemical
In one experiment the target is Met (Homo sapiens, UniProt P08581). In words: Human MET kinase assay (HTRF KinEase). Also on record: Human MET (residues 956-1390; CarnaBio, 0.1 ng/ well); purchased CarnaBio. As to conditions: Table 2 Biological Activities, ATP at Km (3.0 μM), read-out: c-Met IC50. How it is done: (§1) Kinase activity and compound inhibition were investigated using the HTRF® KinEase assay (Cisbio Cat #62TKOPEB) per manufacturer's instructions. In short, compounds were delivered in 300 nL volumes at 10 different concentrations in DMSO (3% final) to empty 384-well assay plates (Corning cat #3824). A mixture of enzyme, 1 μM biotynlated peptide substrate, and buffer in 10 μL volume was added. The assay was started upon the addition of ATP (at Km). The 10 μL reaction was incubated at room temperature. The reaction was stopped upon the addition of detection buffer containing streptavidin-XL665 (5 μL) and TK antibody-Eu3+ (5 μL). After a 60 min incubation at room temperature, the fluorescence at 665 nm and 620 nm was read on an Envision microplate reader (Perkin Elmer). Kinase activity normalized to DMSO (100% activity) and reference compound at 1 μM and (0% activity) was calculated using the fluorescence ratio […]. IC50 values were calculated by nonlinear regression analysis using a 4-parameter logistic curve fit in ActivityBase XE (IDBS).
Human MET (residues 956-1390; CarnaBio, 0.1 ng/ well) was incubated with enzymatic buffer (Cisbio) supplemented with 5 mM MgCl2, 1 mM DTT and 1 mM MnCl2. The mixture was added to the pre-plated compounds. The reaction was initiated upon addition of ATP at Km (3.0 μM). The reaction was incubated at room temperature for 40 min and stopped upon the addition of SA-XL665 and TK-antibody both diluted in EDTA-containing kinase detection buffer (Cisbio). The kinase activity was calculated as stated above and the IC50 values were reported.
For orientation: TR-FRET usually uses a lanthanide donor and a delayed reading to cut background.

In another experiment the target is T1, Human AXL (Homo sapiens, UniProt P30530).
T1 construct: Human AXL (residues 464-885; CarnaBio, 1 ng/ well); purchased CarnaBio
T1 sequence (P30530 464-885 isoform P30530-2): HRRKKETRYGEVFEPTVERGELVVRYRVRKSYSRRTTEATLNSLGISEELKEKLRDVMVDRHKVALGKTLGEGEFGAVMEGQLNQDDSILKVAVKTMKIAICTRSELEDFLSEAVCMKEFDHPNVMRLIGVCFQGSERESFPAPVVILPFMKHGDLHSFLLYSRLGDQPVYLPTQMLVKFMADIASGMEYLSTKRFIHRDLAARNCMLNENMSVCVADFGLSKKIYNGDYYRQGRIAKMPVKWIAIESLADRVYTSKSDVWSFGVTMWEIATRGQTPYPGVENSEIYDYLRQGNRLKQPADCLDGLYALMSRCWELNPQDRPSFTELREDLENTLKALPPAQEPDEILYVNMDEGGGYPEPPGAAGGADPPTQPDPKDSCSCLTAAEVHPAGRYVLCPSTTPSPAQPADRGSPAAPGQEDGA
In words: Human AXL kinase assay (HTRF KinEase). To be noted: Table 2 Biological Activities, ATP at Km (1.0 μM). How it is done:
as §1
Human AXL (residues 464-885; CarnaBio, 1 ng/ well) was incubated with enzymatic buffer (Cisbio) supplemented with 5 mM MgCl2, 1 mM DTT, and Supplemental Enzymatic Buffer (SEB; Cisbio). The mixture was added to the pre-plated compounds. The reaction was initiated upon addition of ATP at Km (1.0 μM). The reaction was incubated at room temperature for 50 min and stopped upon the addition of SA-XL665 and TK-antibody both diluted in EDTA-containing kinase detection buffer (Cisbio). The kinase activity was calculated as stated above and the IC50 values were reported.

The next experiment concerns the target T2, Human MER (Homo sapiens, UniProt Q12866).
T2 construct: Human MER (residues 528-999; CarnaBio, 1 ng/ well); purchased CarnaBio
T2 sequence (Q12866 528-999): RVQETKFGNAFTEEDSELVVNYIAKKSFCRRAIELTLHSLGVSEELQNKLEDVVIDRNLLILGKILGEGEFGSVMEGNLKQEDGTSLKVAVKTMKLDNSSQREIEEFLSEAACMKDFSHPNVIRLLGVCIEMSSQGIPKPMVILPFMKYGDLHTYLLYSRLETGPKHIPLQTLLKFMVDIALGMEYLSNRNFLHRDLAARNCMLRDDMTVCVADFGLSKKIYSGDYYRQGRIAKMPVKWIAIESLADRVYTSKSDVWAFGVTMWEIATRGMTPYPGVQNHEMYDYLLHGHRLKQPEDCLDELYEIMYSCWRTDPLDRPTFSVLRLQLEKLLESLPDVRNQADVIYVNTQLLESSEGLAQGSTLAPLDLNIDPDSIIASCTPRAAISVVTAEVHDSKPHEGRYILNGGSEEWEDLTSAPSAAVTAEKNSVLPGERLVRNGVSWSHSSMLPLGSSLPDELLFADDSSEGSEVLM
In words: Human MER kinase assay (HTRF KinEase). To be noted: Table 2 Biological Activities, ATP at Km (40 μM). How it is done:
as §1
Human MER (residues 528-999; CarnaBio, 1 ng/ well) was incubated with enzymatic buffer (Cisbio) supplemented with 5 mM MgCl2 and 1 mM DTT. The mixture was added to the pre-plated compounds. The reaction was initiated upon addition of ATP at Km (40 μM). The reaction was incubated at room temperature for 60 min and stopped upon the addition of SA-XL665 and TK-antibody both diluted in EDTA-containing kinase detection buffer (Cisbio). The kinase activity was calculated as stated above and the IC50 values were reported.

A further experiment deals with KDR (Homo sapiens, UniProt P35968). Description: Human KDR kinase assay (HTRF KinEase). Also on record: Human KDR (residues 790-1356; CarnaBio, 0.1 ng/ well); purchased CarnaBio. To be noted: Table 2 Biological Activities, ATP at Km (4.0 μM). How it is done: as §1
Human KDR (residues 790-1356; CarnaBio, 0.1 ng/ well) was incubated with enzymatic buffer (Cisbio) supplemented with 5 mM MgCl2, 1 mM MnCl2, and 1 mM DTT. The mixture was added to the pre-plated compounds. The reaction was initiated upon addition of ATP at Km (4.0 μM). The reaction was incubated at room temperature for 40 min and stopped upon the addition of SA-XL665 and TK-antibody both diluted in EDTA-containing kinase detection buffer (Cisbio). The kinase activity was calculated as stated above and the IC50 values were reported.

Sequence of Met (P08581 956-1390): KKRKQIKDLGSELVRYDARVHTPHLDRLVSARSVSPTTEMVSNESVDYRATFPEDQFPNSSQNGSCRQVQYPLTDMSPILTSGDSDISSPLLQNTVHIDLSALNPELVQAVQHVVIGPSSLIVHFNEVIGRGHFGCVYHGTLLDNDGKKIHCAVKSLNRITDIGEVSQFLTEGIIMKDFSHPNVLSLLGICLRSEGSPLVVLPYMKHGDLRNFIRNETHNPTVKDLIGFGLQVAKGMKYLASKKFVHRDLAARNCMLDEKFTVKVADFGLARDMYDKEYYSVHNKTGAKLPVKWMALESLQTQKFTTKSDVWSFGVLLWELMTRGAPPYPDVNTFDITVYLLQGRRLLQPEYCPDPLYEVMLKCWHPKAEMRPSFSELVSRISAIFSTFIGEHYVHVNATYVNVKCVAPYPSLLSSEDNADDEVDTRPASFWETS
Sequence of KDR (P35968 790-1356): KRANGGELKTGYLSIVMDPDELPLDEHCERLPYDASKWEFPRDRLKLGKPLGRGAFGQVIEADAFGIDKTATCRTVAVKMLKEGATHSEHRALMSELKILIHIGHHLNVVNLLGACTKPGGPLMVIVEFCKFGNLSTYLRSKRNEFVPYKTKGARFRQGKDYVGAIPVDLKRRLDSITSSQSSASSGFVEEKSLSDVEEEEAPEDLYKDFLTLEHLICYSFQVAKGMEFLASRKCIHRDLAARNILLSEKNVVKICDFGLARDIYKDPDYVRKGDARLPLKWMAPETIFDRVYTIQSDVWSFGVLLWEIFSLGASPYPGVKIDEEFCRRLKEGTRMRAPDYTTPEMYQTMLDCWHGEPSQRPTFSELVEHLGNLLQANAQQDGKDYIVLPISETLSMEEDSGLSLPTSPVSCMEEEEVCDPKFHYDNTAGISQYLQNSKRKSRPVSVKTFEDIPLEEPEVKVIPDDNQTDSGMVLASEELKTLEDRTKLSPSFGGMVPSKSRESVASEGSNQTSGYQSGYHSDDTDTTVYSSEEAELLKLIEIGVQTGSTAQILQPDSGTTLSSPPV

Consider `COc1cc2nccc(Oc3ccc(NC(=O)c4ccc(C)n(-c5ccc(F)cn5)c4=O)cc3F)c2nc1OC` [Compound 43, N-[4-[(6,7-Dimethoxy-1,5-naphthyridin-4-yl)oxy]-3-fluorophenyl]-1-(5-fluoropyridin-2-yl)-6-methyl-2-oxopyridine-3-carboxamide], for which the IC50 on Met, against Human AXL, against Human MER and at KDR was no more than 100 nM in each case.

As for `COc1cc2nccc(Oc3ccc(NC(=O)c4ccc(C)n(-c5ccc(F)cn5)c4=O)cc3)c2nc1OC` [Compound 44, N-[4-[(6,7-Dimethoxy-1,5-naphthyridin-4-yl)oxy]phenyl]-1-(5-fluoropyridin-2-yl)-6-methyl-2-oxopyridine-3-carboxamide], the IC50 on Met, against Human AXL, at Human MER and at KDR was no more than 100 nM in each case.

`COc1cnc2c(Oc3ccc(NC(=O)c4ccc(C)n(-c5ccc(F)cn5)c4=O)cc3F)ccnc2c1` [Compound 45, N-[3-Fluoro-4-[(7-methoxy-1,5-naphthyridin-4-yl)oxy]phenyl]-1-(5-fluoropyridin-2-yl)-6-methyl-2-oxopyridine-3-carboxamide]: the concentration for half-maximal inhibition (IC50) is no more than 100 nM at Met, no more than 100 nM at Human AXL, no more than 100 nM on Human MER and 100 to 300 nM against KDR.

On to `COc1ccc2nccc(Oc3ccc(NC(=O)c4ccc(C)n(-c5ccc(F)cn5)c4=O)cc3F)c2n1` [Compound 47, N-[3-Fluoro-4-[(6-methoxy-1,5-naphthyridin-4-yl)oxy]phenyl]-1-(5-fluoropyridin-2-yl)-6-methyl-2-oxopyridine-3-carboxamide], for which the IC50 was 100 to 300 nM at Met, no more than 100 nM at Human AXL, no more than 100 nM on Human MER and 300 to 1000 nM against KDR.

As to `Cc1ccc(C(=O)Nc2ccc(Oc3ccnc4cccnc34)c(F)c2)c(=O)n1-c1ccc(F)cn1` [Compound 48, N-[3-Fluoro-4-(1,5-naphthyridin-4-yloxy)phenyl]-1-(5-fluoropyridin-2-yl)-6-methyl-2-oxopyridine-3-carboxamide], the IC50 was no more than 100 nM on Met, no more than 100 nM against Human AXL, no more than 100 nM on Human MER and 300 to 1000 nM on KDR.

Regarding `COCCOc1cc2nccc(Oc3ccc(NC(=O)c4ccc(C)n(-c5ccc(F)cn5)c4=O)cc3F)c2nc1OC` [Compound 50, N-[3-Fluoro-4-[[6-methoxy-7-(2-methoxyethoxy)-1,5-naphthyridin-4-yl]oxy]phenyl]-1-(5-fluoropyridin-2-yl)-6-methyl-2-oxopyridine-3-carboxamide], the IC50 on Met, at Human AXL, on Human MER and on KDR was no more than 100 nM each time.

Regarding `COc1cc2nccc(Oc3ccc(NC(=O)c4ccc(C)n(-c5ncc(F)cc5C)c4=O)cc3F)c2nc1OC` [Compound 51, N-[4-[(6,7-Dimethoxy-1,5-naphthyridin-4-yl)oxy]-3-fluorophenyl]-1-(5-fluoro-3-methylpyridin-2-yl)-6-methyl-2-oxopyridine-3-carboxamide], the IC50 at Met is no more than 100 nM; against Human AXL it was no more than 100 nM; at Human MER it was no more than 100 nM; against KDR, 100 to 300 nM.

As to `COc1cnc2c(Oc3ccc(NC(=O)c4ccc(C)n(-c5ncc(F)cc5C)c4=O)cc3F)ccnc2c1` [Compound 52, N-[3-Fluoro-4-[(7-methoxy-1,5-naphthyridin-4-yl)oxy]phenyl]-1-(5-fluoro-3-methylpyridin-2-yl)-6-methyl-2-oxopyridine-3-carboxamide], the IC50 was no more than 100 nM on Met, no more than 100 nM on Human AXL, no more than 100 nM on Human MER and 300 to 1000 nM on KDR.

As to `COc1ccc2nccc(Oc3ccc(NC(=O)c4ccc(C)n(-c5ncc(F)cc5C)c4=O)cc3F)c2n1` [Compound 53, N-[3-Fluoro-4-[(6-methoxy-1,5-naphthyridin-4-yl)oxy]phenyl]-1-(5-fluoro-3-methylpyridin-2-yl)-6-methyl-2-oxopyridine-3-carboxamide], the IC50 at Met was no more than 100 nM; against Human AXL, no more than 100 nM; on Human MER, no more than 100 nM; against KDR it was 300 to 1000 nM.

Regarding `COc1cc2nccc(Oc3ccc(NC(=O)c4cc(C(C)=O)c(C)n(-c5ccc(F)cn5)c4=O)cc3F)c2nc1OC` [Compound 59, 5-Acetyl-N-[4-[(6,7-dimethoxy-1,5-naphthyridin-4-yl)oxy]-3-fluorophenyl]-1-(5-fluoropyridin-2-yl)-6-methyl-2-oxopyridine-3-carboxamide], the IC50 is no more than 100 nM at Met, no more than 100 nM on Human AXL, no more than 100 nM at Human MER and 300 to 1000 nM against KDR.

Turning to `COc1cc2nccc(Oc3ccc(NC(=O)c4c(C)ncc(-c5ccc(F)cn5)c4O)cc3F)c2nc1OC` [Compound 68, N-[4-[(6,7-Dimethoxy-1,5-naphthyridin-4-yl)oxy]-3-fluorophenyl]-5-(5-fluoropyridin-2-yl)-4-hydroxy-2-methylpyridine-3-carboxamide], the IC50 on Met, against Human AXL, against Human MER and on KDR was no more than 100 nM each time.

`COc1cc2nccc(Oc3ccc(NC(=O)c4c(C)ncc(-c5ccccn5)c4O)cc3F)c2nc1OC` [Compound 69, N-[4-[(6,7-Dimethoxy-1,5-naphthyridin-4-yl)oxy]-3-fluorophenyl]-4-hydroxy-2-methyl-5-pyridin-2-ylpyridine-3-carboxamide]: the IC50 at Met, at Human AXL, at Human MER and against KDR was no more than 100 nM throughout.

Source of the values: patent US20230151003A1, “COMPOUNDS AND METHODS OF USE” (Exelixis, Inc., priority 2020, published 2023).
